Paper PMC8956665, “Structural and molecular rationale for the diversification of resistance mediated by the Antibiotic_NAT family” (Communications Biology, 2022)
Like-named read-outs stand apart in the source and are kept apart here.

How the values were obtained:
meta-AAC0038 [1] = conditions: ternary complex with CoA; 10 mM apramycin, 20% PEG 3350, 50 mM ADA pH 7; catalytically inactive mutant; active site cleft
meta-AAC0038 [2] = conditions: binary complex; catalytically inactive mutant
AAC(3)-IVa [3] = target: AAC(3)-IVa
AAC(3)-IVa [4] = assay: crystal structure

meta-AAC0038, sequence (A0A059X981 entry or part of it H168A): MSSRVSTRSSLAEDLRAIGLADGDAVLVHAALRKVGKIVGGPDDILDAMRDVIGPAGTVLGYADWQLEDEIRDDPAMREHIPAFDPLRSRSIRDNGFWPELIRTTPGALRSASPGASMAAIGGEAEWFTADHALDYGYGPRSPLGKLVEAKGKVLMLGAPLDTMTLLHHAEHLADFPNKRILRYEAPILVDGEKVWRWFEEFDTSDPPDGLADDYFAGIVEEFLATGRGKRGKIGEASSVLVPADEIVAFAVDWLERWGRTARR

In the case of `CN[C@@H]1[C@@H](O[C@H]2O[C@H](CO)[C@@H](N)[C@H](O)[C@H]2O)O[C@H]2C[C@@H](N)[C@@H](O[C@H]3[C@H](O)[C@@H](O)[C@H](N)C[C@@H]3N)O[C@@H]2[C@@H]1O` [APR, apramycin], the “X-ray crystal structure, co-crystallization” value (meta-AAC0038 [1]) is reported as “crystal structures of the ternary meta-AAC0038^H168A•apramycin•CoA”.

In the case of `CC(=O)SCCNC(=O)CCNC(=O)[C@H](O)C(C)(C)COP(=O)(O)OP(=O)(O)OC[C@H]1O[C@@H](n2cnc3c(N)ncnc32)[C@H](O)[C@@H]1OP(=O)(O)O` [AcCoA, acetyl-CoA], the X-ray crystal structure (meta-AAC0038 [2]) is reported as “the binary meta-AAC0038^H168A•acetyl-CoA complexes”.

In the case of AAC(3)-IVa (enzyme), the stoichiometry N (AAC(3)-IVa [3]) is reported as 2 and the stoichiometry N (AAC(3)-IVa [4]) is reported as 2.
